Source: patent US8530493B2, “Indolopyridines as Eg5 kinesin modulators” (4SC AG, priority 2006, dated 2013)

Legend:
Type in all cases: cell-based
[1] = tested on: RKO p27 or p21 induced (arrested) colon adenocarcinoma cells; assay: Alamar Blue cell viability assay, RKO p27 or p21 induced (arrested); conditions: Homo sapiens, RKOp27, Table B2, cells arrested by Ponasterone A, 72 hours, read-out: −log EC50 RKO p27 or p21 induced (arrested) (converted)
Protocol: (§1) To determine the cell cycle specific mode of action, subclones of RKO colon adenocarcinoma cells (RKOp21 or RKOp27 as described by Schmidt et al. in Oncogene 19, 2423-2429; 2000) are seeded into 96 well flat bottom plates at a density of 16000 cells per well in a volume of 50 μl per well in DMEM growth medium with 10% FCS containing 10 μM Ponasterone A. 24 hours after seeding the 50 μl each of the compound dilutions in DMEM medium are added into each well of the 96-well plate. Each compound dilution is tested as triplicates. Wells containing untreated control cells are filled with 50 μl DMEM medium containing 1% DMSO. The cells are then incubated with the substances for 72 hours at 37° C. in a humidified atmosphere containing 5% carbon dioxide. To determine the viability of the cells, 10 μl of an Alamar Blue solution (Biosource) are added and the fluorescence is measured at an extinction of 544 nm and an emission of 590 nm. For the calculation of the cell viability the emission value from untreated cells is set as 100% viability and the emission rates of treated cells are set in relation to the values of untreated cells. Viabilities are expressed as % values. The Graphpad Prism program (GraphPad Software, Inc) is used for the calculation of EC50 values out of the obtained dose-response curves. Viability is compared of proliferating cells grown in the absence of the inducer Ponasterone A, versus viability of cells arrested by the expression of ectopic p27Kip1 induced by Ponasterone A.
(§2) Representative values for anti-proliferation/cytotoxicity [measured as −log EC50 (mol/l)] determined in the aforementioned assays follow from the following tables B1, B2 and B3, in which the numbers of the compounds correspond to the numbers of the examples.

[2] = tested on: RKO p27 or p21 uninduced (proliferating) colon adenocarcinoma cells; assay: Alamar Blue cell viability assay, RKO p27 or p21 uninduced (proliferating); conditions: Homo sapiens, RKOp27, 72 h, Table B2, anti-proliferative/cytotoxic activity, read-out: −log EC50 RKO p27 or p21 uninduced (proliferating) (converted)
Protocol: The anti-proliferative/cytotoxic activity of the compounds described herein can be tested on subclones of RKO human colon adenocarcinoma cells (Schmidt et al., Oncogene 19, 2423-2429; 2000) using the Alamar Blue cell viability assay (described in O'Brien et al. Eur J Biochem 267, 5421-5426, 2000). The compounds are dissolved as 10 mM solutions in DMSO and subsequently diluted in semi-logarithmic steps. DMSO dilutions are further diluted 1:100 into Dulbecco's modified Eagle's medium (DMEM) containing 10% fetal calf serum to a final concentration twice as much as the final concentration in the test. RKO subclones are seeded into 96 well flat bottom plates at a density of 4000 cells per well in a volume of 50 μl per well. 24 hours after seeding the 50 μl each of the compound dilutions in DMEM medium are added into each well of the 96 well plate. Each compound dilution is tested as triplicates. Wells containing untreated control cells are filled with 50 μl DMEM medium containing 1% DMSO. The cells are then incubated with the substances for 72 hours at 37° C. in a humidified atmosphere containing 5% carbon dioxide. To determine the viability of the cells, 10 μl of an Alamar Blue solution (Biosource) are added and the fluorescence is measured at an extinction of 544 nm and an emission of 590 nm. For the calculation of the cell viability the emission value from untreated cells is set as 100% viability and the emission rates of treated cells are set in relation to the values of untreated cells. Viabilities are expressed as % values. The Graphpad Prism program is used for the calculation of EC50 values for anti-proliferative/cytotoxic activity out of the obtained dose-response curves.
as §1, §2

[3] = tested on: RKO p21 uninduced (proliferating) colon adenocarcinoma cells; assay: Alamar Blue cell viability assay, RKO p21 uninduced (proliferating); conditions: Homo sapiens, Table B3, anti-proliferative/cytotoxic activity, 72 hours, read-out: −log EC50 RKO p21 uninduced (proliferating) (converted)
Summary of the method: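 RKO p21 or p27 subclones grown without Ponasterone A, i.e. proliferating, exposed 24 h after seeding to semi-log compound dilutions in DMEM/10% FCS (1% DMSO controls) for 72 h at 37° C. Alamar Blue fluorescence (544/590 nm) read relative to untreated cells; EC50 from dose-response curves, given as −log EC50 (mol/l).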

Compound	EC50 [1] [nM]	EC50 [2] [nM]	EC50 [3] [nM]
C#CCN(C)CCCN1C(=O)N2[C@H](c3cccc(O)c3)c3[nH]c4ccc(OC)cc4c3C[C@@]2(C)C1=O (racemic) [Example 144]	≥ 316	39.8 to 251	
CN(CCO)CCCN1C(=O)N2[C@H](c3cccc(O)c3)c3[nH]c4ccc(Cl)cc4c3C[C@@]2(C)C1=O (racemic) [Example 132, (3aSR,10RS)-6-Chloro-2-{3-[(2-hydroxy-ethyl)-methyl-amino]-propyl}-10-(3-hydroxy-phenyl)-3a-methyl-3a,4,9,10-tetrahydro-2,9,10a-triaza-cyclopenta[b]fluorene-1,3-dione]	≥ 316	≤ 39.8	
COc1ccc2[nH]c3c(c2c1)C[C@@]1(C)C(=O)N(CCCN(C)C(C)C)C(=O)N1[C@@H]3c1cccc(O)c1 (racemic) [Example 94, (3aSR,10RS)-10-(3-Hydroxy-phenyl)-2-[3-(isopropyl-methyl-amino)-propyl]-6-methoxy-3a-methyl-3a,4,9,10-tetrahydro-2,9,10a-triaza-cyclopenta[b]fluorene-1,3-dione]	≥ 3160	≤ 39.8	
COc1ccc2[nH]c3c(c2c1)C[C@@]1(C)C(=O)N(CCCN2CCCCC2)C(=O)N1[C@@H]3c1cccc(O)c1 (racemic) [Example 105, (3aSR,10RS)-10-(3-Hydroxy-phenyl)-6-methoxy-3a-methyl-2-(3-piperidin-1-yl-propyl)-3a,4,9,10-tetrahydro-2,9,10a-triaza-cyclopenta[b]fluorene-1,3-dione]	≥ 316	≤ 39.8	
COc1ccc2[nH]c3c(c2c1)C[C@@]1(C)C(=O)N(CCCN2CC=CCC2)C(=O)N1[C@@H]3c1cccc(O)c1 (racemic) [Example 106, (3aSR,10RS)-2-[3-(3,6-Dihydro-2H-pyridin-1-yl)-propyl]-10-(3-hydroxy-phenyl)-6-methoxy-3a-methyl-3a,4,9,10-tetrahydro-2,9,10a-triaza-cyclopenta[b]fluorene-1,3-dione]	≥ 316	≤ 39.8	
COCCNCCN1C(=O)N2[C@H](c3cccc(O)c3)c3[nH]c4ccc(Cl)cc4c3C[C@@]2(C)C1=O (racemic) [Example 128, (3aSR,10RS)-6-Chloro-10-(3-hydroxy-phenyl)-2-[2-(2-methoxy-ethylamino)-ethyl]-3a-methyl-3a,4,9,10-tetrahydro-2,9,10a-triaza-cyclopenta[b]fluorene-1,3-dione]	≥ 316	≤ 39.8	
CN(CCO)CCN1C(=O)N2[C@H](c3cccc(O)c3)c3[nH]c4ccc(Cl)cc4c3C[C@@]2(C)C1=O (racemic) [Example 126, (3aSR,10RS)-6-Chloro-2-{2-[(2-hydroxy-ethyl)-methyl-amino]-ethyl}-10-(3-hydroxy-phenyl)-3a-methyl-3a,4,9,10-tetrahydro-2,9,10a-triaza-cyclopenta[b]fluorene-1,3-dione]	≥ 316	≤ 39.8	
C=CCNCCN1C(=O)N2[C@H](c3cccc(O)c3)c3[nH]c4ccc(OC)cc4c3C[C@@]2(C)C1=O (racemic) [Example 84, (3aSR,10RS)-2-(2-Allylamino-ethyl)-10-(3-hydroxy-phenyl)-6-methoxy-3a-methyl-3a,4,9,10-tetrahydro-2,9,10a-triaza-cyclopenta[b]fluorene-1,3-dione]	≥ 3160	≤ 39.8	
COc1ccc2[nH]c3c(c2c1)C[C@@]1(C)C(=O)N(CCN(C)CCO)C(=O)N1[C@@H]3c1cccc(O)c1 (racemic) [Example 118, (3aSR,10RS)-2-{2-[(2-Hydroxy-ethyl)-methyl-amino]-ethyl}-10-(3-hydroxy-phenyl)-6-methoxy-3a-methyl-3a,4,9,10-tetrahydro-2,9,10a-triaza-cyclopenta[b]fluorene-1,3-dione]	≥ 316	≤ 39.8	
C[C@@]12Cc3c([nH]c4ccc(Cl)cc34)[C@@H](c3cccc(O)c3)N1C(=O)N(CCN1CC=CCC1)C2=O (racemic) [Example 100, (3aSR,10RS)-6-Chloro-2-[2-(3,6-dihydro-2H-pyridin-1-yl)-ethyl]-10-(3-hydroxy-phenyl)-3a-methyl-3a,4,9,10-tetrahydro-2,9,10a-triaza-cyclopenta[b]fluorene-1,3-dione]	≥ 3160	≤ 39.8	
CCN(CC)CCCN1C(=O)N2[C@H](c3cccc(O)c3)c3[nH]c4ccc(OC)cc4c3C[C@@]2(C)C1=O (racemic) [Example 107, (3aSR,10RS)-2-(3-Diethylamino-propyl)-10-(3-hydroxy-phenyl)-6-methoxy-3a-methyl-3a,4,9,10-tetrahydro-2,9,10a-triaza-cyclopenta[b]fluorene-1,3-dione]	≥ 316	≤ 39.8	
C[C@@]12Cc3c([nH]c4ccc(Cl)cc34)[C@@H](c3cccc(O)c3)N1C(=O)N(CCNCC(F)F)C2=O (racemic) [Example 123, (3aSR,10RS)-6-Chloro-2-[2-(2,2-difluoro-ethylamino)-ethyl]-10-(3-hydroxy-phenyl)-3a-methyl-3a,4,9,10-tetrahydro-2,9,10a-triaza-cyclopenta[b]fluorene-1,3-dione]	≥ 316	39.8 to 251	
CNCCCN1C(=O)N2[C@H](c3cccc(O)c3)c3[nH]c4ccc(OC)cc4c3C[C@@]2(C)C1=O (racemic) [Example 76, (3aSR,10RS)-10-(3-Hydroxy-phenyl)-6-methoxy-3a-methyl-2-(3-methylamino-propyl)-3a,4,9,10-tetrahydro-2,9,10a-triaza-cyclopenta[b]fluorene-1,3-dione]	≥ 3160	≤ 39.8	
C[C@@]12Cc3c([nH]c4ccc(Cl)cc34)[C@@H](c3cccc(O)c3)N1C(=O)N(CCCN1CCC1)C2=O (racemic) [Example 141, (3aSR,10RS)-2-(3-Azetidin-1-yl-propyl)-6-chloro-10-(3-hydroxy-phenyl)-3a-methyl-3a,4,9,10-tetrahydro-2,9,10a-triaza-cyclopenta[b]fluorene-1,3-dione]	≥ 3160	≤ 39.8	
COc1cc2c3c([nH]c2cc1F)[C@@H](c1cccc(O)c1)N1C(=O)N(CCCN2CCCCC2)C(=O)[C@]1(C)C3 (racemic) [Example 324, (3aSR,10RS)-7-Fluoro-10-(3-hydroxy-phenyl)-6-methoxy-3a-methyl-2-(3-piperidin-1-yl-propyl)-3a,4,9,10-tetrahydro-2,9,10a-triaza-cyclopenta[b]fluorene-1,3-dione]			39.8 to 251
CCOc1ccc2[nH]c3c(c2c1)C[C@@]1(C)C(=O)N(CCCN(CC)CCOC)C(=O)N1[C@@H]3c1cccc(O)c1 (racemic) [Example 195, (3aSR,10RS)-6-Ethoxy-2-{3-[ethyl-(2-methoxy-ethyl)-amino]-propyl}-10-(3-hydroxy-phenyl)-3a-methyl-3a,4,9,10-tetrahydro-2,9,10a-triaza-cyclopenta[b]fluorene-1,3-dione]			39.8 to 251
C#CCN(C)CCN1C(=O)N2[C@H](c3cccc(O)c3)c3[nH]c4ccc(Br)cc4c3C[C@@]2(C)C1=O (racemic) [Example 382, (3aSR,10RS)-6-Bromo-10-(3-hydroxy-phenyl)-3a-methyl-2-[2-(methyl-prop-2-ynyl-amino)-ethyl]-3a,4,9,10-tetrahydro-2,9,10a-triaza-cyclopenta[b]fluorene-1,3-dione]			39.8 to 251
